From PMC6270338, “Diterpenylquinone Hybrids: Synthesis and Assessment of Gastroprotective Mechanisms of Action in Human Cells” (Molecules, 2013)

Columns and labels:
[1] = Cytotoxicity, neutral red uptake assay, MRC-5; format: cell-based; settings: human, MRC-5 lung fibroblasts, confluent monolayer, confluent MRC-5, 24 h, read-out: IC50 ± SD, cytotoxicity MRC-5
Procedure: (§1) Human lung fibroblasts MRC-5 (ATCC CCL-171) were grown in minimum essential Eagle medium (MEM) with Earles’s salts and 2 mM L-glutamine (Sigma-Aldrich Co.). Human epithelial gastric cells AGS (ATCC CRL-1739) were grown in Ham F-12 medium containing 1 mM L-glutamine. Both media were supplemented with 1.5 g/L sodium bicarbonate (Sigma-Aldrich Co.), 10% heat-inactivated fetal bovine serum (FBS), 100 IU/mL penicillin and 100 µg/mL streptomycin.Both cell lines were grown as monolayers in a humidified incubator with 5% CO2 in air at 37 °C. Culture media, antibiotics and FBS were obtained from Invitrogen Corp.
(§2) Cytotoxicity values were required as a reference to determine the working concentrations in the subsequent experiments. Briefly, confluent cultures of MRC-5 and AGS cells were treated during 24 h with medium containing the compounds at concentrations ranging from 0 up to 1,000 µM. The products were first dissolved in DMSO (1% final concentration) and then in the corresponding culture medium supplemented with 2% FBS. Untreated cells were used as controls. Cell viability was determined at the end of the incubation by means of the neutral red uptake (NRU) assay. Lansoprazole (Sigma-Aldrich Co., min. 98% by TLC) was used as reference compound.

[2] = tested on: human erythrocyte membranes; assay: Inhibition of lipoperoxidation in erythrocyte membranes; format: biochemical; settings: at 100 µg/mL
Procedure: The inhibition of lipid peroxidation was determined using human erythrocyte membranes. The compounds were tested at 100 µg/mL.

AGS cells [3] = assay: Sodium taurocholate (NaT)-induced damage to AGS cells; format: cell-based, human; settings: 60 min pre-treatment, then 10 mM NaT 30 min
Procedure: The effect of sodium taurocholate (NaT) on cell viability was determined according to [15]. […] Then, 10 mM NaT was added to all wells for 30 min. Untreated cells were used as controls. […] After incubation, the NRU assay was carried out.

[4] = Cytotoxicity, neutral red uptake assay, AGS; format: cell-based; settings: human, AGS gastric epithelial cells, confluent monolayer, read-out: IC50 ± SD, cytotoxicity AGS
Procedure: as §1, §2

AGS cells [5] = assay: Cellular reduced glutathione (GSH) content of AGS cells; format: cell-based, human; settings: 4 h; for GSH: post-confluent AGS, control 13.6 ± 0.7
Procedure: Untreated cells were used as controls. […] After incubation, the GSH content was determined using a colorimetric kit (BioAssays Systems, Hayward, CA, USA). Results are expressed as nanomol of soluble reduced sulfhydryls/10^6 cells.

[6] = tested on: HCl-EtOH-induced gastric lesions; parameters: method as in PMID 21996716; settings: mice, orally, single dose of 5 mg/kg; cited from earlier work
AGS cells [7] = assay: Prostaglandin E2 (PGE2) content of AGS cells; format: cell-based, human; settings: 1 h; for PGE2: post-confluent AGS, control 52 ± 5
Procedure: One day after confluence, AGS cells were treated for 1 h with the compounds at 1/2 and 1/4 of the respective IC50 values. A control with medium only was included. Indomethacin (100 μM) was used as standard inhibitor of prostaglandin synthesis (Sigma-Aldrich Co., min. 99% by TLC). After incubation, PGE2 content was determined by means of a specific enzyme immunoassay kit (R & D Systems KGE004B, Minneapolis, MN, USA) and values were calculated according to the manufacturer instructions. Results are expressed as pg/well.

MRC-5 fibroblasts = assay: MRC-5 fibroblast proliferation assay; format: cell-based, human; settings: MRC-5, 4 days, concentrations 1/64 to 1/2 of IC50
Procedure: Untreated cells were used as controls. Cell viability was determined at the end of the incubation by means of the NRU assay.

[8] = tested on: human erythrocyte membranes; assay: Inhibition of lipoperoxidation in erythrocyte membranes; format: biochemical

In the case of COC(=O)[C@@]1(C)CCC[C@@]2(C)C1CC[C@H](C)[C@@H]2CC[C@@H](C)CC(=O)OC1=C(CCC(C)C)C(=O)c2ccccc2C1=O (stereo partly drawn) [Compound 16, Dihydroprenyl lapachol 17β-dihydrojunicedrate methyl ester], the IC50 at 24 h [1] is reported as 596 ± 44 µM, the “% Inhibition of the lipoperoxidation” value [2] is reported as 46% and the “reduction in cell viability, NaT-induced damage” value (from here on “reduction in cell viability”) (AGS cells [3]; 81 µM) is reported as 44%. It also gave an IC50 at 24 h [4] of 643 ± 39 µM, a GSH (AGS cells [5]; 80 µM) of 14.9 ± 0.7 nmol/10^6 cells and a GSH (AGS cells [5]; 160 µM) of 14.1 ± 0.6 nmol/10^6 cells.
For CC1=C(CC[C@@H](C)CC(=O)OC2=C(CCC(C)C)C(=O)c3ccccc3C2=O)[C@@]2(C)CCC[C@](C)(C(=O)O)C2CC1 (some centres unmarked) [Compound 21, Dihydroprenyl lapachoyl Δ8(9) junicedrate], the “gastroprotective effect in vivo” value [6] is listed as “significant activity”, the IC50 at 24 h [1] is listed as 601 ± 26 µM and the “reduction in cell viability” value (AGS cells [3]; 35 µM) is listed as 25%. The “reduction in cell viability” value (AGS cells [3]; 70 µM) was 27%, the “reduction in cell viability” value (AGS cells [3]; 139 µM) was 30% and the IC50 at 24 h [4] was 278 ± 14 µM. The activation at 70 µM (AGS cells [5]; Homo sapiens, AGS, 70 µM, read-out: increase of GSH content compared to untreated controls) was 33%, the GSH (AGS cells [5]; 35 µM) was 13.3 ± 0.7 nmol/10^6 cells and the GSH (AGS cells [5]; 70 µM) was “* 18.1 ± 1.1 nmol/10^6 cells”. For the same molecule, the fold induction at 85 µM (AGS cells [7]; Homo sapiens, AGS, 85 µM, read-out: increase in PGE2 content) was 3.1 and the PGE2 (AGS cells [7]; 85 µM) was 162 ± 18 pg/mL.
For CC(C)=CCC1=C(OC(=O)C[C@H](C)CCC2=C(C)CCC3[C@@](C)(C(=O)O)CCC[C@]23C)C(=O)c2ccccc2C1=O (some centres unmarked) [Compound 19, Lapachoyl Δ8(9) junicedrate], the IC50 at 24 h [1] was 129 ± 9 µM, the “% Inhibition of the lipoperoxidation” value [2] was 49% and the “reduction in cell viability” value (AGS cells [3]; 19 µM) was 15%. The “reduction in cell viability” value (AGS cells [3]; 37 µM) was 27%, the “reduction in cell viability” value (AGS cells [3]; 74 µM) was 40% and the IC50 at 24 h [4] was 148 ± 9 µM. The GSH (AGS cells [5]; 19 µM) was 13.1 ± 0.4 nmol/10^6 cells and the GSH (AGS cells [5]; 37 µM) was 13.5 ± 0.5 nmol/10^6 cells.
For C=C1CCC2[C@](C)(CCC[C@]2(C)C(=O)O)[C@H]1CC[C@@H](C)CC(=O)OC1=C(CCC(C)C)C(=O)C2=C(CCCC2)C1=O (some centres unmarked) [Compound 11, Dihydroprenyl-5,6,7,8-tetrahydrolapachoyl junicedrate], the IC50 at 24 h [1] was 42 ± 2 µM, the “% Inhibition of the lipoperoxidation” value [2] was 44% and the IC50 at 24 h [4] was 63 ± 4 µM. The GSH (AGS cells [5]; 8 µM) was 13.1 ± 0.6 nmol/10^6 cells, the GSH (AGS cells [5]; 16 µM) was 13.2 ± 0.5 nmol/10^6 cells and the “Percentual proliferative increase compared to untreated cells” value (from here on “Percentual proliferative increase”) (MRC-5 fibroblasts) was 3.6%.
For CC(C)=CCC1=C(OC(=O)C[C@H](C)CC[C@H]2[C@@H](C)CCC3[C@]2(C)CCC[C@]3(C)C(=O)O)C(=O)c2ccccc2C1=O (stereo partly drawn) [Compound 13, Lapachoyl 17β-dihydrojunicedrate], the IC50 at 24 h [1] was 355 ± 21 µM, the “reduction in cell viability” value (AGS cells [3]; 45 µM) was 38% and the “reduction in cell viability” value (AGS cells [3]; 89 µM) was 38%. For the same molecule, the IC50 at 24 h [4] was 351 ± 29 µM, the GSH (AGS cells [5]; 44 µM) was 11.9 ± 0.4 nmol/10^6 cells and the GSH (AGS cells [5]; 88 µM) was 11.4 ± 0.6 nmol/10^6 cells. For the same molecule, the “Percentual proliferative increase” value (MRC-5 fibroblasts) was 7.3% and the “IC50, inhibition of the lipoperoxidation” value [8] was “IC50 61.1 ± 5.9 µg/mL”.
With CC1=C(CC[C@@H](C)CC(=O)OC2=C(CCC(C)C)C(=O)C3=C(CCCC3)C2=O)[C@@]2(C)CCC[C@](C)(C(=O)O)C2CC1 (some centres unmarked) [Compound 23, Dihydroprenyl-5,6,7,8-tetrahydrolapachoyl Δ8(9) junicedrate] the IC50 at 24 h [1] was 20 ± 2 µM, the “reduction in cell viability” value (AGS cells [3]; 7.5 µM) was 32% and the “reduction in cell viability” value (AGS cells [3]; 15 µM) was 39%. The IC50 at 24 h [4] was 29 ± 2 µM, the activation at 7.3 µM (AGS cells [5]; Homo sapiens, AGS, 7.3 µM, read-out: increase of GSH content compared to untreated controls) was 26% and the GSH (AGS cells [5]; 3.6 µM) was 12.6 ± 0.8 nmol/10^6 cells. The GSH (AGS cells [5]; 7.3 µM) was “* 17.1 ± 1.3 nmol/10^6 cells”, the “Stimulation of fibroblast proliferation” value (MRC-5 fibroblasts) was “inactive” and the “IC50, inhibition of the lipoperoxidation” value [8] was “IC50 59.5 ± 4.3 µg/mL”.
With COC(=O)[C@@]1(C)CCC[C@]2(C)C(CC[C@@H](C)CC(=O)OC3=C(CCC(C)C)C(=O)C4=C(CCCC4)C3=O)=C(C)CCC12 (some centres unmarked) [Compound 24, Dihydroprenyl-5,6,7,8-tetrahydrolapachoyl Δ8(9) junicedrate methyl ester] the IC50 at 24 h [1] was greater than 1000 µM, the “% Inhibition of the lipoperoxidation” value [2] was 27% and the IC50 at 24 h [4] was greater than 1000 µM. The GSH (AGS cells [5]; 125 µM) was “* 18.7 ± 1.0 nmol/10^6 cells”, the GSH (AGS cells [5]; 250 µM) was “* 18.0 ± 0.9 nmol/10^6 cells” and the fold induction at 250 µM (AGS cells [7]; Homo sapiens, AGS, 250 µM, read-out: increase in PGE2 content) was 2.4. For the same molecule, the PGE2 (AGS cells [7]; 250 µM) was 123 ± 12 pg/mL and the “Stimulation of fibroblast proliferation” value (MRC-5 fibroblasts) was “inactive”.
In the case of CC1=C(CC[C@@H](C)CC(=O)O)[C@@]2(C)CCC[C@](C)(C(=O)O)C2CC1 (some centres unmarked) [Compound 5, Δ8(9) Junicedric acid], the IC50 at 24 h [1] is reported as 834 ± 51 µM, the “reduction in cell viability” value (AGS cells [3]; 83 µM) is reported as 19% and the “reduction in cell viability” value (AGS cells [3]; 333 µM) is reported as 35%. The IC50 at 24 h [4] was 666 ± 35 µM, the “Effect in the GSH assay” value (AGS cells [5]; AGS, 1/4 and 1/8 of IC50) was “devoid of activity” and the GSH (AGS cells [5]; 83 µM) was 13.6 ± 0.5 nmol/10^6 cells. For the same molecule, the GSH (AGS cells [5]; 166 µM) was 14.1 ± 0.6 nmol/10^6 cells, the “Percentual proliferative increase” value (MRC-5 fibroblasts) was 3.6% and the “IC50, inhibition of the lipoperoxidation” value [8] was “IC50 43.8 ± 2.8 µg/mL”.
In the case of COC(=O)[C@@]1(C)CCC[C@@]2(C)C1CC[C@H](C)[C@@H]2CC[C@@H](C)CC(=O)OC1=C(CC=C(C)C)C(=O)C2=C(CCCC2)C1=O (stereo partly drawn) [Compound 18, Dihydroprenyl-5,6,7,8-tetrahydrolapachoyl 17β-dihydrojunicedrate methyl ester], the IC50 at 24 h [1] is reported as 369 ± 29 µM, the “% Inhibition of the lipoperoxidation” value [2] is reported as 28% and the IC50 at 24 h [4] is reported as 884 ± 62 µM. For the same molecule, the activation at 111 µM (AGS cells [5]; Homo sapiens, AGS, 111 µM, read-out: increase of GSH content compared to untreated controls) was 26%, the activation at 221 µM (AGS cells [5]; Homo sapiens, AGS, 221 µM, read-out: increase of GSH content compared to untreated controls) was 26% and the GSH (AGS cells [5]; 111 µM) was “* 17.1 ± 1.1 nmol/10^6 cells”. The GSH (AGS cells [5]; 221 µM) was “* 17.2 ± 1.0 nmol/10^6 cells”, the fold induction at 111 µM (AGS cells [7]; Homo sapiens, AGS, 111 µM, read-out: increase in PGE2 content) was 2.4 and the fold induction at 221 µM (AGS cells [7]; Homo sapiens, AGS, 221 µM, read-out: increase in PGE2 content) was 3. For the same molecule, the PGE2 (AGS cells [7]; 111 µM) was 123 ± 9 pg/mL, the PGE2 (AGS cells [7]; 221 µM) was 156 ± 13 pg/mL and the “Percentual proliferative increase” value (MRC-5 fibroblasts) was 3.6%.
